Assay results taken from the NIST ThermoML archive (doi:10.1021/je800357c).

Test: mn = molality of the nth substance listed, in mol/kg
Settings: 101 kPa, Liquid

O=C(O)/C=C\C(=O)O [cis-1,4-butenedioic acid] + O
mass density [kg/m3]
Settings | 288.15 K | 293.15 K | 298.15 K | 303.15 K | 308.15 K | 313.15 K | 318.15 K | 323.15 K | 328.15 K | 333.15 K
m1 = 0.09831 | 1003.24 | 1002.29 | 1001.04 | 999.59 | 997.91 | 996.07 | 994.03 | 991.81 | 989.41 | 986.88
m1 = 0.4902 | 1018.5 | 1017.26 | 1015.79 | 1014.1 | 1012.25 | 1010.18 | 1007.98 | 1005.58 | 1003.01 | 1000.36
m1 = 0.979 | 1035.99 | 1034.47 | 1032.74 | 1030.81 | 1028.74 | 1026.46 | 1024.06 | 1021.47 | 1018.75 | 1015.92
